# Several values for one entry are separate records, joined by “and”; a condition that tells them apart may be missing. Identical values can stand only once. Records with an inconclusive call do not appear.
# Test system: MX-1 breast xenograft, nude mice, tumor weight T/C
# Test: NCI In Vivo Anticancer Drug Screen. Data for tumor model Human Mammary Carcinoma MX-1 Xenograft (intrarenal inoculation) in NU/NU Swiss (nude) mice
# Settings: endpoint: mean tumor weight change, higher = larger tumour
# Summary of the method: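 Mice carrying the implanted tumor receive either test agent or vehicle. Tumor size or survival is then recorded for both groups. Results are stated as the treated-to-control quotient.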
# [1] = dose: 300.0 mg/kg/injection, schedule: Q04DX003 (sc), vehicle: saline with Tween-80
# [2] = dose: 600.0 mg/kg/injection, schedule: Q04DX003 (sc), vehicle: saline with Tween-80
# [3] = dose: 1200.0 mg/kg/injection, schedule: Q04DX003 (sc), vehicle: saline with Tween-80
# [4] = dose: 150.0 mg/kg/injection, schedule: Q04DX003 (sc), vehicle: Klucel (hydroxypropylcellulose) (HPC)
# [5] = dose: 300.0 mg/kg/injection, schedule: Q04DX003 (sc), vehicle: Klucel (hydroxypropylcellulose) (HPC)
# [6] = dose: 600.0 mg/kg/injection, schedule: Q04DX003 (sc), vehicle: Klucel (hydroxypropylcellulose) (HPC)
# [7] = dose: 12.5 mg/kg/injection, schedule: Q04DX003 (sc), vehicle: saline
# [8] = dose: 25.0 mg/kg/injection, schedule: Q04DX003 (sc), vehicle: saline
# [9] = dose: 50.0 mg/kg/injection, schedule: Q01DX010 (sc), vehicle: saline with Tween-80
# [10] = dose: 100.0 mg/kg/injection, schedule: Q01DX010 (sc), vehicle: saline with Tween-80
# [11] = dose: 0.5 mg/kg/injection, schedule: Q01DX010 (sc), vehicle: saline
# [12] = dose: 100.0 mg/kg/injection, schedule: Q04DX003 (sc), vehicle: suspension in saline
# [13] = dose: 200.0 mg/kg/injection, schedule: Q04DX003 (sc), vehicle: suspension in saline
# [14] = dose: 400.0 mg/kg/injection, schedule: Q04DX003 (sc), vehicle: suspension in saline
smiles,measurement,setting,value
O=C1c2ccccc2C(=O)c2c(NCCNCCO)ccc(NCCNCCO)c21,T/C,"dose: 4.0 mg/kg/injection, schedule: Q01DX010 (ip), vehicle: water",59 % of control
same,T/C,"dose: 8.0 mg/kg/injection, schedule: Q01DX010 (ip), vehicle: water",80 % of control
same,T/C,"dose: 13.33 mg/kg/injection, schedule: Q04DX003 (ip), vehicle: water",45 % of control
same,T/C,"dose: 13.33 mg/kg/injection, schedule: Q04DX003 (sc), vehicle: water",65 % of control
same,T/C,"dose: 16.0 mg/kg/injection, schedule: Q01DX010 (ip), vehicle: water",61 % of control
same,T/C,"dose: 16.0 mg/kg/injection, schedule: Q01DX010 (sc), vehicle: water",13 % of control and 25 % of control
same,T/C,"dose: 26.65 mg/kg/injection, schedule: Q04DX003 (sc), vehicle: water",32 % of control
same,T/C,"dose: 32.0 mg/kg/injection, schedule: Q01DX010 (ip), vehicle: water",20 % of control
same,T/C,"dose: 53.3 mg/kg/injection, schedule: Q04DX003 (ip), vehicle: water",31 % of control
same,T/C,"dose: 53.3 mg/kg/injection, schedule: Q04DX003 (sc), vehicle: water",31 % of control
CC1=C(O)C(=O)[C@@H]2O[C@@H]2C1=O,T/C,"dose: 2.35 mg/kg/injection, schedule: Q04DX003 (sc), vehicle: saline",86 % of control
same,T/C,"dose: 4.69 mg/kg/injection, schedule: Q04DX003 (sc), vehicle: saline",82 % of control
same,T/C,"dose: 9.38 mg/kg/injection, schedule: Q04DX003 (sc), vehicle: saline",119 % of control
same,T/C,"dose: 18.75 mg/kg/injection, schedule: Q04DX003 (sc), vehicle: saline",63 % of control
S=c1[nH]cc2cnccn12,T/C,[1],104 % of control
same,T/C,[2],97 % of control
same,T/C,[3],106 % of control
CC(C#N)(C#N)N=Nc1ccc(Cl)cc1Cl,T/C,[1],94 % of control
same,T/C,[2],94 % of control
same,T/C,[3],98 % of control
same,T/C,"dose: 2400.0 mg/kg/injection, schedule: Q04DX003 (sc), vehicle: saline with Tween-80",92 % of control
CCc1ccc(C2=C(O)C(=O)C(c3ccccc3)=C(O)C2=O)cc1,T/C,[4],100 % of control
same,T/C,[5],100 % of control
same,T/C,[6],77 % of control
CC(C)NC(=O)N(CCCCBr)N=O,T/C,"dose: 75.0 mg/kg/injection, schedule: Q04DX003 (sc), vehicle: Klucel (hydroxypropylcellulose) (HPC)",42 % of control and 47 % of control
same,T/C,[5],40 % of control
CCN(CC)CCC(=O)c1ccccc1,T/C,"dose: 75.0 mg/kg/injection, schedule: Q04DX003 (sc), vehicle: saline with Tween-80",94 % of control
same,T/C,"dose: 150.0 mg/kg/injection, schedule: Q04DX003 (sc), vehicle: saline with Tween-80",100 % of control
same,T/C,[1],115 % of control
COc1ccc(C(=O)C(CN(C)C)CN(C)C)cc1,T/C,[7],101 % of control
same,T/C,[8],123 % of control
same,T/C,"dose: 50.0 mg/kg/injection, schedule: Q04DX003 (sc), vehicle: saline",85 % of control
CN1C(=O)NC(c2ccc(Cl)cc2)(c2ccc(Cl)cc2)C1=O,T/C,[9],90 % of control
same,T/C,[10],109 % of control
same,T/C,"dose: 200.0 mg/kg/injection, schedule: Q01DX010 (sc), vehicle: saline with Tween-80",60 % of control
same,T/C,"dose: 400.0 mg/kg/injection, schedule: Q01DX010 (sc), vehicle: saline with Tween-80",49 % of control
C/C(=N/NC(N)=S)c1ccc2ccccc2c1,T/C,"dose: 25.0 mg/kg/injection, schedule: Q01DX010 (sc), vehicle: saline with Tween-80",75 % of control
same,T/C,[9],81 % of control
same,T/C,[10],29 % of control
COC1OC(CO)C(O)C(NC(=O)N(C)N=O)C1O (stereo not given),T/C,"dose: 225.0 mg/kg/injection, schedule: Q04DX003 (sc), vehicle: saline",45 % of control
same,T/C,"dose: 900.0 mg/kg/injection, schedule: Q04DX003 (sc), vehicle: saline",18 % of control and 20 % of control (2×)
same,T/C,"dose: 1800.0 mg/kg/injection, schedule: Q04DX003 (sc), vehicle: saline",3 % of control and 4 % of control
CC[C@]1(O)C[C@H]2CN(CCc3c([nH]c4ccccc34)[C@@](C(=O)OC)(c3cc4c(cc3OC)N(C=O)[C@H]3[C@@](O)(C(=O)OC)[C@H](OC(C)=O)[C@]5(CC)C=CCN6CC[C@]43[C@@H]65)C2)C1,T/C,[11],-100 % of control and -81 % of control
same,T/C,"dose: 1.0 mg/kg/injection, schedule: Q01DX010 (sc), vehicle: saline",-99 % of control
CN(CCN(C)C(=O)CCOS(C)(=O)=O)C(=O)CCOS(C)(=O)=O,T/C,"dose: 50.0 mg/kg/injection, schedule: Q04DX003 (sc), vehicle: saline with Tween-80",41 % of control
same,T/C,"dose: 50.0 mg/kg/injection, schedule: Q04DX003 (sc), vehicle: suspension in saline",16 % of control
same,T/C,"dose: 100.0 mg/kg/injection, schedule: Q04DX003 (sc), vehicle: saline with Tween-80",1 % of control
same,T/C,[12],-86 % of control
same,T/C,"dose: 200.0 mg/kg/injection, schedule: Q04DX003 (sc), vehicle: saline with Tween-80",-65 % of control
same,T/C,[13],-100 % of control
same,T/C,[14],-100 % of control
CC(=O)C1(O)Cc2c(O)c3c(c(O)c2C(OC2CC(N)C(O)C(C)O2)C1)C(=O)c1ccccc1C3=O (stereo not given),T/C,"dose: 0.5 mg/kg/injection, schedule: Q04DX003 (sc), vehicle: water",104 % of control
same,T/C,"dose: 1.0 mg/kg/injection, schedule: Q04DX003 (sc), vehicle: water",100 % of control
Cn1cnc([N+](=O)[O-])c1Sc1ncn[nH]1,T/C,[12],72 % of control
same,T/C,[13],95 % of control
same,T/C,[14],92 % of control
N#Cc1cn(C2OC(CO)C(O)C2O)c2ncnc(N)c12 (stereo not given),T/C,[11],172 % of control
Cc1cn(C2CC3[O][Sn]([c]4ccccc4)([c]4ccccc4)[O]CC3O2)c(=O)[nH]c1=O (stereo not given),T/C,"dose: 25.0 mg/kg/injection, schedule: Q01DX010 (sc), vehicle: saline",93 % of control
same,T/C,"dose: 100.0 mg/kg/injection, schedule: Q01DX010 (sc), vehicle: saline",93 % of control
same,T/C,"dose: 200.0 mg/kg/injection, schedule: Q01DX010 (sc), vehicle: saline",115 % of control
same,T/C,"dose: 600.0 mg/kg/injection, schedule: Q04DX003 (sc), vehicle: saline",86 % of control
same,T/C,"dose: 1200.0 mg/kg/injection, schedule: Q04DX003 (sc), vehicle: saline",107 % of control
same,T/C,"dose: 2400.0 mg/kg/injection, schedule: Q04DX003 (sc), vehicle: saline",64 % of control
CC(CN1CC(=O)NC(=O)C1)N1CC(=O)NC(=O)C1 (stereo not given),T/C,[4],92 % of control
same,T/C,[5],64 % of control
[N-]=[N+]=CC(=O)CCC(N)C(=O)O (stereo not given),T/C,"dose: 0.1 mg/kg/injection, schedule: Q01DX010 (sc), vehicle: saline",-45 % of control
same,T/C,"dose: 0.1 mg/kg/injection, schedule: Q02DX005 (sc), vehicle: saline",3 % of control
same,T/C,"dose: 0.2 mg/kg/injection, schedule: Q01DX010 (sc), vehicle: saline",-64 % of control
same,T/C,"dose: 0.2 mg/kg/injection, schedule: Q02DX005 (sc), vehicle: saline",-13 % of control
same,T/C,"dose: 0.4 mg/kg/injection, schedule: Q01DX010 (sc), vehicle: saline",-80 % of control
same,T/C,"dose: 0.8 mg/kg/injection, schedule: Q02DX005 (sc), vehicle: saline",-90 % of control
same,T/C,"dose: 1.6 mg/kg/injection, schedule: Q02DX005 (sc), vehicle: saline",-92 % of control
same,T/C,"dose: 3.12 mg/kg/injection, schedule: Q04DX003 (sc), vehicle: DMSO",11 % of control
same,T/C,"dose: 3.13 mg/kg/injection, schedule: Q04DX003 (sc), vehicle: saline",1 % of control
same,T/C,"dose: 3.2 mg/kg/injection, schedule: Q02DX005 (sc), vehicle: saline",-100 % of control
same,T/C,"dose: 6.25 mg/kg/injection, schedule: Q04DX003 (sc), vehicle: DMSO",15 % of control
same,T/C,"dose: 6.25 mg/kg/injection, schedule: Q04DX003 (sc), vehicle: saline",1 % of control
same,T/C,"dose: 12.5 mg/kg/injection, schedule: Q04DX003 (sc), vehicle: DMSO",18 % of control
same,T/C,[7],1 % of control
same,T/C,"dose: 25.0 mg/kg/injection, schedule: Q04DX003 (sc), vehicle: DMSO",7 % of control
same,T/C,[8],-7 % of control
CCCCCC(=O)O[C@]1(C(C)=O)CC[C@H]2[C@@H]3CCC4=CC(=O)CC[C@]4(C)[C@H]3CC[C@@]21C,T/C,[6],98 % of control
same,T/C,"dose: 2400.0 mg/kg/injection, schedule: Q04DX003 (sc), vehicle: Klucel (hydroxypropylcellulose) (HPC)",85 % of control
CC1(CO)C(O)CCC2(C)C1CCC1CC3CC12CCC3(O)CO (stereo not given),T/C,[9],56 % of control
same,T/C,[10],38 % of control

# — PubChem BioAssay AID296 (DTP/NCI, 2004)
